{
  "source": "patent US4845130A",
  "about": "“Antihyperlipidemic amines” (United States Borax & Chemical Corporation, priority 1988, dated 1989)",
  "key": {"serum cholesterol [1]": {"test_system": "serum cholesterol", "assay": "Serum cholesterol (modified Liebermann-Burchard reaction) in mice", "format": "in vivo, male CF1 mice", "conditions": "for response vs control in vivo at 20 mg/kg: Mus musculus, 20 mg./kg./day intraparenterally, male CF1 mice; for Serum cholesterol, % of Control, Day 9 / Serum cholesterol, % of Control, Day 16: 8 mg./kg/day, procedure of Example 1", "description": "(§1) For determining hypolipidemic activity, representative compounds of this invention were suspended in an aqueous 1% carboxymethylcellulose solution and tested at 20 mg./kg./ day administered intraparenterally to male CF1 mice (~25 g.). Six animals were used for each test. On days 9 and 16, blood was collected by tail vein bleeding and the serum separated by centrifugation for three minutes. Serum cholesterol levels were determined by a modified Liebermann-Burchard reaction. Serum triglyceride levels were also determined at 16 days using a Fisher-Hycel Triglyceride Test Kit.\n(§2) The procedure of Example 1 was repeated with octade-cylamine and N,N-dimethyl-n-octadecylamine at a dosage of 8 mg./kg/ day."}, "serum triglyceride": {"test_system": "serum triglyceride", "assay": "Serum triglyceride (Fisher-Hycel Triglyceride Test Kit) in mice", "format": "in vivo, male CF1 mice", "conditions": "Mus musculus, 384 h, Day 16; for response vs control in vivo at 20 mg/kg: 20 mg./kg./day intraparenterally; for response vs control in vivo at 8 mg/kg: 8 mg./kg/day, procedure of Example 1", "description": "as §1, §2"}, "serum cholesterol [2]": {"test_system": "serum cholesterol", "assay": "Serum cholesterol (modified Liebermann-Burchard reaction) in mice", "format": "in vivo", "conditions": "Mus musculus, clofibrate at its therapeutic dose of 150 mg., male CF1 mice"}, "[3]": {"conditions": "2.5 mg/kg in mice; cited from earlier work"}, "[4]": {"test_system": "ATP dependent citrate lyase", "conditions": "in vivo; cited from earlier work"}, "acetyl CoA synthetase": {"test_system": "acetyl CoA synthetase", "conditions": "in vivo; cited from earlier work"}, "[5]": {"test_system": "phosphatidate phosphohydrolase", "conditions": "in vivo; cited from earlier work"}, "cholesterol excretion": {"test_system": "cholesterol excretion", "conditions": "mouse, in vivo; cited from earlier work"}, "[6]": {"conditions": "216 h, Day 9, read-out: Serum Cholesterol, % of Control, Day 9"}, "[7]": {"conditions": "384 h, Day 16, read-out: Serum Cholesterol, % of Control, Day 16"}},
  "note": "Read-outs that look alike come from different tables or passages of the source.",
  "data": [
    {"compound": "CCCCCCCCCCCCCCCCN", "note": "[1-hexadecylamine]", "values": [
      {"measurement": "response vs control in vivo at 20 mg/kg", "setting": "serum cholesterol [1]; [6]", "result": "39 ± 5", "unit": "%"},
      {"measurement": "response vs control in vivo at 20 mg/kg", "setting": "serum cholesterol [1]; [7]", "result": "35 ± 4", "unit": "%"},
      {"measurement": "response vs control in vivo at 20 mg/kg", "setting": "serum triglyceride; male CF1 mice", "result": "63 ± 6", "unit": "%"}
    ]},
    {"compound": "CCCCCCCCCCCCCCN", "note": "[1-tetradecylamine]", "values": [
      {"measurement": "response vs control in vivo at 20 mg/kg", "setting": "serum cholesterol [1]; [6]", "result": "50 ± 4", "unit": "%"},
      {"measurement": "response vs control in vivo at 20 mg/kg", "setting": "serum cholesterol [1]; [7]", "result": "34 ± 3", "unit": "%"},
      {"measurement": "response vs control in vivo at 20 mg/kg", "setting": "serum triglyceride; male CF1 mice", "result": "54 ± 6", "unit": "%"}
    ]},
    {"compound": "CCCCCCCCCCCCCCCCCCN(C)C", "note": "[N,N-dimethyl-n-octadecylamine]", "values": [
      {"measurement": "Serum cholesterol, % of Control, Day 9", "setting": "serum cholesterol [1]; Day 9", "result": "91 ± 5 % of Control"},
      {"measurement": "Serum cholesterol, % of Control, Day 16", "setting": "serum cholesterol [1]; Day 16", "result": "79 ± 5 % of Control"},
      {"measurement": "response vs control in vivo at 20 mg/kg", "setting": "serum cholesterol [1]; [6]", "result": "76 ± 6", "unit": "%"},
      {"measurement": "response vs control in vivo at 20 mg/kg", "setting": "serum cholesterol [1]; [7]", "result": "61 ± 5", "unit": "%"},
      {"measurement": "response vs control in vivo at 8 mg/kg", "setting": "serum triglyceride", "result": "84 ± 6", "unit": "%"},
      {"measurement": "response vs control in vivo at 20 mg/kg", "setting": "serum triglyceride; male CF1 mice", "result": "56 ± 3", "unit": "%"}
    ]},
    {"compound": "CCCCCCCCCCCCCCCCCCNC", "note": "[N-methyloctadecylamine]", "values": [
      {"measurement": "response vs control in vivo at 20 mg/kg", "setting": "serum cholesterol [1]; [6]", "result": "51 ± 5", "unit": "%"},
      {"measurement": "response vs control in vivo at 20 mg/kg", "setting": "serum cholesterol [1]; [7]", "result": "44 ± 4", "unit": "%"},
      {"measurement": "response vs control in vivo at 20 mg/kg", "setting": "serum triglyceride; male CF1 mice", "result": "64 ± 6", "unit": "%"}
    ]},
    {"compound": "CCOC(=O)C(C)(C)Oc1ccc(Cl)cc1", "note": "[clofibrate]", "values": [
      {"measurement": "response vs control in vivo at 150 mg", "setting": "serum triglyceride; clofibrate at its therapeutic dose of 150 mg., male CF1 mice", "result": "75 ± 5", "unit": "%"},
      {"measurement": "response vs control in vivo at 150 mg", "setting": "serum cholesterol [2]; [6]", "result": "88 ± 7", "unit": "%"},
      {"measurement": "response vs control in vivo at 150 mg", "setting": "serum cholesterol [2]; [7]", "result": "87 ± 5", "unit": "%"}
    ]},
    {"compound": "CCCCCCCCCCN", "note": "[decylamine]", "values": [
      {"measurement": "response vs control in vivo at 20 mg/kg", "setting": "serum cholesterol [1]; [6]", "result": "48 ± 4", "unit": "%"},
      {"measurement": "response vs control in vivo at 20 mg/kg", "setting": "serum cholesterol [1]; [7]", "result": "38 ± 5", "unit": "%"},
      {"measurement": "response vs control in vivo at 20 mg/kg", "setting": "serum triglyceride; male CF1 mice", "result": "59 ± 6", "unit": "%"}
    ]},
    {"compound": "CCCCCCCCCCCCN", "note": "[dodecylamine]", "values": [
      {"measurement": "response vs control in vivo at 20 mg/kg", "setting": "serum cholesterol [1]; [6]", "result": "63 ± 6", "unit": "%"},
      {"measurement": "response vs control in vivo at 20 mg/kg", "setting": "serum cholesterol [1]; [7]", "result": "61 ± 5", "unit": "%"},
      {"measurement": "response vs control in vivo at 20 mg/kg", "setting": "serum triglyceride; male CF1 mice", "result": "64 ± 4", "unit": "%"}
    ]},
    {"compound": "CCCCCCCCCCCCCCCCCCN", "note": "[octadecylamine]", "values": [
      {"measurement": "Serum cholesterol, % of Control, Day 9", "setting": "serum cholesterol [1]; Day 9", "result": "63 ± 3 % of Control"},
      {"measurement": "Serum cholesterol, % of Control, Day 16", "setting": "serum cholesterol [1]; Day 16", "result": "57 ± 4 % of Control"},
      {"measurement": "response vs control in vivo at 20 mg/kg", "setting": "serum cholesterol [1]; [6]", "result": "72 ± 5", "unit": "%"},
      {"measurement": "response vs control in vivo at 20 mg/kg", "setting": "serum cholesterol [1]; [7]", "result": "64 ± 4", "unit": "%"},
      {"measurement": "response vs control in vivo at 8 mg/kg", "setting": "serum triglyceride", "result": "60 ± 5", "unit": "%"},
      {"measurement": "response vs control in vivo at 20 mg/kg", "setting": "serum triglyceride; male CF1 mice", "result": "56 ± 4", "unit": "%"}
    ]},
    {"compound": "CCCCCCCCCCCCCN", "note": "[tridecylamine]", "values": [
      {"measurement": "response vs control in vivo at 20 mg/kg", "setting": "serum cholesterol [1]; [6]", "result": "69 ± 5", "unit": "%"},
      {"measurement": "response vs control in vivo at 20 mg/kg", "setting": "serum cholesterol [1]; [7]", "result": "67 ± 5", "unit": "%"},
      {"measurement": "response vs control in vivo at 20 mg/kg", "setting": "serum triglyceride; male CF1 mice", "result": "73 ± 7", "unit": "%"}
    ]},
    {"compound": "CCCCCCCCCCCN", "note": "[undecylamine]", "values": [
      {"measurement": "response vs control in vivo at 20 mg/kg", "setting": "serum cholesterol [1]; [6]", "result": "61 ± 5", "unit": "%"},
      {"measurement": "response vs control in vivo at 20 mg/kg", "setting": "serum cholesterol [1]; [7]", "result": "57 ± 6", "unit": "%"},
      {"measurement": "response vs control in vivo at 20 mg/kg", "setting": "serum triglyceride; male CF1 mice", "result": "66 ± 5", "unit": "%"}
    ]},
    {"compound": "tetrakis-u-(trimethylamine-borane carboxyato) bis(trimethylaminecarboxyborane)-dicopper (II)", "values": [
      {"measurement": "hypolipidemic activity", "setting": "[3]", "result": "potent hypolipidemic agent"},
      {"measurement": "ATP dependent citrate lyase", "setting": "[4]", "result": "lower"},
      {"measurement": "acetyl CoA synthetase", "setting": "acetyl CoA synthetase", "result": "lower"},
      {"measurement": "phosphatidate phosphohydrolase", "setting": "[5]", "result": "lower"},
      {"measurement": "cholesterol excretion from the body", "setting": "cholesterol excretion", "result": "accelerate cholesterol excretion from the body"}
    ]}
  ]
}
